Experimental data as given in ChEMBL document CHEMBL1142821, “Identification of potent type I MetAPs inhibitors by simple bioisosteric replacement. Part 2: SAR studies of 5-heteroalkyl substituted TCAT derivatives” (Bioorg Med Chem Lett, 2005).

Assays:
[1] = target: T1, Methionine aminopeptidase 1 (Saccharomyces cerevisiae S288c, UniProt Q01662); test: Inhibitory concentration against ScMetAP1 enzyme activity
T1 sequence (Q01662 whole entry): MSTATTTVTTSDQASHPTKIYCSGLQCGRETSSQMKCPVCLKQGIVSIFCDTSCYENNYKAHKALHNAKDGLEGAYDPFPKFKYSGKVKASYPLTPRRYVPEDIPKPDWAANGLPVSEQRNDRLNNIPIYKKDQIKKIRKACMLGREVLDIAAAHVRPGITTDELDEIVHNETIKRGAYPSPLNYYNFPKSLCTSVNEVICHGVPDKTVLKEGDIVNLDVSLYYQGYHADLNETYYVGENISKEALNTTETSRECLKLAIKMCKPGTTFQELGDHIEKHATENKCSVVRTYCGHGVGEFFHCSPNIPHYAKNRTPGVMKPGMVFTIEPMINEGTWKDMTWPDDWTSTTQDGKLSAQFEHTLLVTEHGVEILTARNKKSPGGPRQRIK

[2] = target: T2, Methionine aminopeptidase (Escherichia coli K-12, UniProt P0AE18); test: Inhibitory concentration against EcMetAP1 enzyme activity
T2 sequence (P0AE18 whole entry): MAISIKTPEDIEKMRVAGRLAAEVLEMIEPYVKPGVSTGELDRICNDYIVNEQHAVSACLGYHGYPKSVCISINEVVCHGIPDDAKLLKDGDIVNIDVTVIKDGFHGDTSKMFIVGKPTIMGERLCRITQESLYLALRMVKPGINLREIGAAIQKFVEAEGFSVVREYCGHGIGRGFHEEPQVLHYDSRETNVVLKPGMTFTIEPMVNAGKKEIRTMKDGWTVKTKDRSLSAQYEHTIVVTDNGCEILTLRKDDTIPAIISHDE

| SMILES | IC50 [1] [nM] | IC50 [2] [nM] |
| --- | --- | --- |
| CO[C@@H](Cc1scnc1C(=O)Nc1nccs1)c1ccccc1 | 450 | 66 |
| O=C(Nc1nccs1)c1ncsc1CN1CCOCC1 | 1760 | 55 |
| COC(C)(C)Cc1scnc1C(=O)Nc1nccs1 | 3210 | 69 |
| O=C(Nc1nccs1)c1ncsc1CN1CCCCC1 | 75 | 10 |
| O=C(Nc1nccs1)c1ncsc1CCN1CCCCC1 | 410 | 45 |
| O=C(OCCc1scnc1C(=O)Nc1nccs1)c1ccccc1 | 3080 | 41 |
| CC(=O)OCCc1scnc1C(=O)Nc1nccs1 | 17900 | 310 |
| Cc1ccc(S(=O)(=O)OCCc2scnc2C(=O)Nc2nccs2)cc1 | 3720 | 1530 |
| O=C(Nc1nccs1)c1ncsc1CN1CCCC1 | 350 | 25 |
| COc1ccc(C(Cc2scnc2C(=O)Nc2nccs2)OC)cc1 (centres undefined) | 310 | 23 |
| O=C(COCc1ccccc1)OCCc1scnc1C(=O)Nc1nccs1 | 550 | 130 |
| CCCCC(Cc1scnc1C(=O)Nc1nccs1)OC (centres undefined) | 450 | 100 |
| COC(Cc1scnc1C(=O)Nc1nccs1)c1ccccc1F (centres undefined) | 270 | 34 |
| O=C(Nc1nccs1)c1ncsc1CCOCc1ccccc1 | 4250 | 90 |
| COC(c1ccccc1)c1scnc1C(=O)Nc1nccs1 (centres undefined) | 750 | 61 |
| COC(Cc1scnc1C(=O)Nc1nccs1)C1CCCCC1 (centres undefined) | 400 | 54 |

| SMILES | IC50 [1] [nM] | IC50 [2] [nM] |
| --- | --- | --- |
| COC(Cc1scnc1C(=O)Nc1nccs1)c1cccc(Cl)c1 (centres undefined) | 520 | 90 |
| CO[C@H](Cc1scnc1C(=O)Nc1nccs1)c1ccccc1 | 450 | 36 |
| COc1ccccc1C(Cc1scnc1C(=O)Nc1nccs1)OC (centres undefined) | 570 | 35 |
| COc1cc(C(=O)OCCc2scnc2C(=O)Nc2nccs2)cc(OC)c1OC | 1560 | 160 |
| COC(Cc1scnc1C(=O)Nc1nccs1)c1cccc(F)c1 (centres undefined) | 340 | 37 |
| O=C(Nc1nccs1)c1ncsc1CCOC(=O)C1CCCC1 | 800 | 140 |
| CCOC(Cc1scnc1C(=O)Nc1nccs1)C(C)C (centres undefined) | 150 | 28 |
| COC(Cc1scnc1C(=O)Nc1nccs1)CC(C)C (centres undefined) | 500 | 90 |
| COCc1scnc1C(=O)Nc1nccs1 | 7530 | 97 |
| COC(Cc1scnc1C(=O)Nc1nccs1)c1ccccc1 (centres undefined) | 440 | 43 |
| O=C(Nc1nccs1)c1ncsc1CCO | 10400 | 470 |
| COCCc1scnc1C(=O)Nc1nccs1 | 6430 | 150 |
| O=C(Cc1ccccc1)OCCc1scnc1C(=O)Nc1nccs1 | 6040 | 33 |
| COC(Cc1scnc1C(=O)Nc1nccs1)c1ccc(Cl)cc1 (centres undefined) | 570 | 33 |
| COC(Cc1scnc1C(=O)Nc1nccs1)c1ccccc1Cl (centres undefined) | 230 | 170 |
| COC(Cc1scnc1C(=O)Nc1nccs1)c1ccc(F)cc1 (centres undefined) | 390 | 57 |
